{"source": "patent US10501741B2", "about": "“Methods and compositions for inhibiting growth and epithelial to mesenchymal transition (EMT) in cancer cells” (Cold Spring Harbor Laboratory, priority 2014, dated 2019)", "key": {"[1]": {"test_system": "E-cadherin", "assay": "E-cadherin mRNA upon H2O2 treatment (SYBR-green real-time RT-PCR)", "type": "cell-based", "method": "(§1) FIG. 7A presents Western blot analysis of A549 cells ectopically expressing p53Ψ upon transfection with two independent siRNA targeting cyclophilin D (CypD). […] Data represent expression levels compared to actin (mean±SD, n=6; p<0.0001, Student's t-test) as measured by SYBR-green-based real-time RT-PCR. […] Cell motility was measured in a standard wound healing experiment. […] Each bar represents the average of four individual wounds. […] Data represent relative expression compared to the vector control (mean±SD, n=6; p<0.0001, Student's t-test). […] Cells were treated for 5 days with 10 mM NAC. FIG. 7F presents a schematic of a proposed mechanism of the p53Ψ-induced EMT. Upon acute oxidative stress, p53FL was previously shown to interact with CypD and trigger necrotic cell death by opening mPTP pore (left panel).\n(§2) To determine whether CypD and ROS have a causative role in EMT mediated by p53Ψ, CypD and ROS levels were modulated in cells ectopically expressing p53Ψ (A549, MCF7, H1299) and their effects on expression of EMT markers and cell invasion were assessed."}, "[2]": {"test_system": "A549 cells ectopically expressing p53Ψ", "assay": "Matrigel invasion assay", "type": "cell-based, human", "details": "NAC 10 mM, 5 days, invasion assessed after 30 hours", "method": "(§3) Data shown represent relative expression compared to ectopic expression of a vector control (mean±SD, n=6; p<0.0001, Student's t-test). […] Cells were also treated with 10 mM NAC for 5 days. The cell extracts were probed for E-cadherin, p53, CypD, and as a control GAPDH. […] Cells were treated with 10 mM NAC or 500 μM Tempol for 5 days, then extracts were probed for E-cadherin, p53 and GAPDH as indicated. […] Cells were grown in the presence or absence of NAC (10 mM). After 5 days, the invasive potential of cells was determined using a standard Matrigel invasion assay. Filter chambers were coated with 40 μl Matrigel and invasion was assessed after 30 hours.\nas §2"}, "[3]": {"test_system": "A549 cells ectopically expressing p53Ψ", "assay": "E-cadherin expression with ROS scavengers", "type": "cell-based, human", "details": "10 mM NAC or 500 μM Tempol for 5 days", "method": "as §1\nData shown represent relative expression compared to ectopic expression of a vector control (mean±SD, n=6; p<0.0001, Student's t-test). […] After 5 days, the invasive potential of cells was determined using a standard Matrigel invasion assay. Filter chambers were coated with 40 μl Matrigel and invasion was assessed after 30 hours.\nas §2"}, "[4]": {"test_system": "A549 cells expressing p53Ψ", "assay": "epistasis experiment: CypD silencing and NAC, E-cadherin Western blot", "type": "cell-based, human", "method": "as §3\nTo exclude the possibility that ROS-induced EMT was independent of CypD in p53Ψ-expressing cells, epistasis experiments were performed. Specifically, E-cadherin expression was measured upon manipulation of ROS levels (e.g. by NAC treatment) in cells ectopically expressing p53Ψ in the presence and absence of CypD (FIG. 13B). If CypD and p53Ψ act on parallel pathways, an additive effect of CypD silencing and ROS inhibition would be predicted. In contrast, if p53Ψ acts solely through CypD, then CypD silencing would be sufficient to reduce ROS levels and no additive effect would be observed. […] This in turn is necessary and sufficient for p53Ψ-induced EMT (FIG. 7F, right panel)."}, "[5]": {"test_system": "mitochondrial permeability transition pore (mPTP) in A549 cells expressing p53Ψ", "assay": "calcein AM assay of mPTP permeability", "type": "cell-based, human", "details": "ionomycin 50 nM, control; all experimental settings", "quoted_text": "In this assay, cells are loaded with Calcein (acetomethylester) together with its quencher Cobalt ions. Calcein freely diffuses throughout the cell including into the mitochondrial matrix. But the Cobalt quencher cannot diffuse across the inner mitochondrial membrane, therefore quenching Calcein fluorescence everywhere except in the mitochondrial matrix. Thus, Calcein fluorescence comes only from the matrix. Only upon PTP opening will Cobalt ions gain access to the matrix and quench Calcein, resulting in a sharp drop of mitochondrial fluorescence, which can be measured by FACS or microscopy (FIG. 6B)."}, "[6]": {"test_system": "cells ectopically expressing p53Ψ (A549, MCF7, H1299)", "assay": "EMT induction by p53Ψ upon modulation of CypD", "type": "cell-based, human", "method": "as §2"}, "[7]": {"test_system": "A549 cells ectopically expressing p53Ψ", "assay": "wound healing (cell motility) assay", "type": "cell-based, human", "details": "2 mM CsA for 5 days, closure at 48 hours", "method": "as §1, §2"}, "[8]": {"test_system": "H1299 cells ectopically expressing p53Ψ", "assay": "qRT-PCR of EMT markers in H1299 cells", "type": "cell-based, human", "details": "2 mM CsA for 5 days"}, "[9]": {"test_system": "A549 cells expressing p53Ψ", "assay": "MitoSOX staining of mitochondrial superoxide", "type": "cell-based, human", "details": "MitoSOX 1 μM", "method": "FIG. 6A presents Western blot analysis of mitochondrial fractions of A549 cells ectopically expressing p53Ψ. The fractions were immunoprecipitated with a CypD-specific antibody and probed with a p53 N-terminal antibody, or CypD and Smurf1 antibodies as controls. […] FIG. 6B depicts a schematic of the calcein AM assay. […] The fluorescence was detected by laser confocal microscopy after 15 minutes. Non-mitochondrial calcein fluorescence was quenched by co-treatment with CoCl2. Treatment with the ionophore ionomycin (50 nM) was used as a control. […] FIG. 6D presents the % decrease in calcein fluorescence upon quenching of cytosolic calcein with CoCl2 in three independent experiments. The median calcein fluorescence was assessed by FACS. Calcein was loaded at 10 nM and detected after 15 minutes at 515 nm upon excitation with Red HeNe at 495 nm. Treatment with ionomycin was used as a control to estimate basal fluorescence. FIG. 6E presents representative fluorescence microscopy images of A549 cells loaded with MitoSOX (1 μM). Images show the fluorescence upon excitation at 390 nm, mainly from the hydroxyethidium derivative. DAPI was used as a counterstain. FIG. 6F presents the quantification of the MitoSox-positive fractions in three independent FACS experiments from FIG. 6E. […]"}, "[10]": {"test_system": "MCF7 cells ectopically expressing p53Ψ", "assay": "real-time PCR of EMT markers in MCF7 cells", "type": "cell-based, human", "details": "CsA 2 mM for 5 days"}, "[11]": {"test_system": "HOP62 cells", "assay": "p53Ψ silencing in HOP62 cells (morphology, qRT-PCR of EMT markers)", "type": "cell-based, human", "description": "Representative micrographs are presented showing cells 4 days after transfection with a mixture of two independent siRNA oligonucleotides targeting p53. […] No difference in Snail expression was observed. Data shown represent relative expression levels compared to actin (mean±SD, n=6; p<0.0001, Student's t-test) as measured by SYBR-green-based real-time RT-PCR. […] Level of expression of p53FL and p53Ψ in MCF7 are provided in FIGS. 11B and 10E, respectively. FIG. 4D presents qRT-PCR analysis of the canonical EMT markers E-cadherin (ECAD) and vimentin (VIM) as well as the EMT master regulators Snail, Slug, Twist, and Zeb1, in H1299 cells ectopically expressing p53Ψ or p53FL. Data shown represent relative expression levels compared to actin (mean±SD, n=6; p<0.0001, Student's t-test) as measured by SYBR-green-based real-time RT-PCR. FIG. 4E depicts the percent wound closure at the indicated time points in a 2D monolayer of A549 cells expressing p53Ψ, p53FL, or vector control. […] Filter chambers were coated with 40 μl Matrigel, and invasion was assessed after 30 hours. TGF-β treated cells were used as a positive control.\nSomatic alterations of the p53 tumor suppressor gene located on chromosome 17p often occur in cancers and are associated with poor prognosis. In these tumors, p53 mutations disable p53-mediated inhibition of proliferation and promotion of apoptosis in response to stress. In addition, missense p53 mutations may have gain-of-function activities that lead to an increased metastatic spread. […] To test this hypothesis p53Ψ expression was silenced in HOP62 cells. These mesenchymal cells are homozygous for the c.673−2A to G mutation and inherently express exclusively a p53Ψ-like isoform (FIG. 2I and FIG. 9O). […] Cells in which p53Ψ expression was silenced lost the elongated appearance typical of mesenchymal-like cells and instead acquired a cobblestone morphology characteristic of epithelial cells (FIG. 4A)."}}, "note": "Entries after “also recorded” stand apart in the source; their conditions may differ.", "data": [{"compound": "OO", "note": "[H2O2]", "values": [{"measurement": "cell viability", "setting": "[1]; low doses of H2O2", "result": "without compromising cell viability"}, {"measurement": "expression of E-cadherin", "setting": "[1]; low doses of H2O2 for 5 days", "result": "decreased the expression of E-cadherin"}]}, {"compound": "CC(=O)N[C@@H](CS)C(=O)O", "note": "[NAC, N-acetyl cysteine]", "values": [{"measurement": "invasive capabilities (Matrigel invasion)", "setting": "[2]", "result": "decreased invasive capabilities; also recorded: sufficient to decrease the invasion capabilities"}, {"measurement": "expression of E-cadherin", "setting": "[3]", "result": "augmented expression of E-cadherin"}, {"measurement": "E-cadherin expression in cells in which CypD was silenced", "setting": "[4]; CypD siRNA, 10 mM NAC for 5 days", "result": "did not increase E-cadherin expression"}]}, {"compound": "CC1(C)CC(O)CC(C)(C)N1[O]", "note": "[Tempol]", "values": [{"measurement": "invasive capabilities (Matrigel invasion)", "setting": "[2]", "result": "decreased invasive capabilities"}, {"measurement": "expression of E-cadherin", "setting": "[3]", "result": "augmented expression of E-cadherin"}]}, {"compound": "C[C@H](CCC(=O)O)C[C@H](C)C[C@H](C)C(=O)/C=C(\\O)[C@H](C)C[C@H](C)C/C=C/[C@@H](C)[C@@H](O)[C@@H](C)[C@@H](O)C[C@@H]1CC[C@@](C)([C@H]2CC[C@@](C)([C@@H](C)O)O2)O1", "note": "[ionomycin]", "values": [{"measurement": "mitochondria calcein fluorescence", "setting": "[5]", "result": "rapid loss of mitochondria calcein fluorescence"}]}, {"compound": "CypD siRNA: siRNA AGGCAGATGTCGTCCCAAA (SEQ ID NO:10); CGACTTCACCAACCACAAT (SEQ ID NO:11), from Invitrogen (listed as DNA, chemistry not given here)", "values": [{"measurement": "EMT in cells expressing p53Ψ", "setting": "[6]", "result": "sufficient to prevent EMT"}, {"measurement": "p53Ψ-induced EMT", "setting": "[4]; CypD silenced", "result": "blocked p53Ψ-induced EMT"}]}, {"compound": "cyclosporin A [CsA]", "values": [{"measurement": "cell motility (wound healing)", "setting": "[7]", "result": "diminish cell motility"}, {"measurement": "expression of E-cadherin (qRT-PCR)", "setting": "[8]", "result": "restore expression of E-cadherin to a level similar to that observed in control cells"}, {"measurement": "expression of EMT markers (qRT-PCR)", "setting": "[8]", "result": "reduce expression of EMT markers"}, {"measurement": "MitoSOX fluorescence (mitochondrial superoxide)", "setting": "[9]", "result": "decreased"}, {"measurement": "expression of E-cadherin (real-time PCR)", "setting": "[10]", "result": "restore expression of E-cadherin to levels similar to parental cells"}, {"measurement": "expression of EMT markers (real-time PCR)", "setting": "[10]", "result": "reduce expression of EMT markers"}, {"measurement": "EMT in cells expressing p53Ψ", "setting": "[6]", "result": "sufficient to prevent EMT"}]}, {"compound": "p53 siRNA: siRNA GGGTTAGTTTACAATCAGC (SEQ ID NO:5); GGTGAACCTTAGTACCTAA (SEQ ID NO:6), from Invitrogen (listed as DNA, chemistry not given here)", "values": [{"measurement": "cell morphology", "setting": "[11]; 4 days after transfection with two siRNA targeting p53", "result": "loss of mesenchymal-like features and the acquisition of an epithelial morphology"}, {"measurement": "Snail expression", "setting": "[11]; p53 siRNA", "result": "No difference"}, {"measurement": "expression of E-cadherin", "setting": "[11]; p53Ψ knockdown", "result": "increased expression of E-cadherin"}, {"measurement": "expression of vimentin, Zeb1, Twist and Slug", "setting": "[11]; p53Ψ knockdown", "result": "diminished expression"}]}]}
